Experimental data published in patent publication US7759331B2, “Pyridine-containing macroheterococylic compounds as kinase inhibitors” (Janssen Pharmaceutica NV, priority 2006, dated 2010).

Key:
Test in all cases: Protein kinase selectivity panel
Conditions in all cases: 1.0 μM compound, 10 μM ATP
AMPK(r) = type: biochemical, rat
Method: (§1) Protein kinase selectivity assays were performed as described in the scientific literature (Davies, S. P., et al., Biochem. J. 2000, 351, 95-105). Briefly, protein kinases were assayed for their ability to phosphorylate the appropriate peptide/protein substrates in the presence of 1.0 μM compound. Assays were done using 10 μM ATP and were linear with respect to time. The protein kinase selectivity assays were performed by Upstate Cell Signaling Solutions using Upstate's KinaseProfiler™ Selectivity Screening Service.

CaMKII(r) = type: biochemical, rat
Method: as §1

CK1(y) = type: biochemical, yeast
Method: as §1

p70S6K(h) = type: biochemical, human
Method: as §1

Arg(m) = Arg(m) (Mus musculus, UniProt Q4JIM5); type: biochemical
Method: as §1

CDK2/cyclinA(h) = CDK2/cyclinA(h) (Homo sapiens, UniProt P24941); type: biochemical
Method: as §1

CDK5/p35(h) = CDK5/p35(h) (Homo sapiens, UniProt Q00535); type: biochemical
Method: as §1

CHK1(h) = target: T1, CHK1(h) (Homo sapiens, UniProt O14757); type: biochemical
T1 sequence (O14757 1-476): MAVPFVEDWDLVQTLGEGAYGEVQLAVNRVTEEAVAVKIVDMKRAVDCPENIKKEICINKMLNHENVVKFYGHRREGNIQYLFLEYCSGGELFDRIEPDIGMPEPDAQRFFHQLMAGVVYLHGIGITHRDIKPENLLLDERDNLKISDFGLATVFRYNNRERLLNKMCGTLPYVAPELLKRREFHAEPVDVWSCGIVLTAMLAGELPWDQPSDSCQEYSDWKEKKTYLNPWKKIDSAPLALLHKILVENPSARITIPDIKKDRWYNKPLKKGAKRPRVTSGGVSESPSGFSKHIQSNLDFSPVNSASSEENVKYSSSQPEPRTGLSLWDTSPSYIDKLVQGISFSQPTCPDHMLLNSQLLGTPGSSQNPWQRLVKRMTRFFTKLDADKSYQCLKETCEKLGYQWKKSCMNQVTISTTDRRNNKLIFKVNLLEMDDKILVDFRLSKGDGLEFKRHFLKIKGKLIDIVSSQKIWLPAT
Method: as §1

CK1δ(h) = CK1δ(h) (Homo sapiens, UniProt P48730); type: biochemical
Method: as §1

CK2(h) = CK2(h) (Homo sapiens, UniProt P68400); type: biochemical
Method: as §1

CSK(h) = CSK(h) (Homo sapiens, UniProt P41240); type: biochemical
Method: as §1

Fes(h) = Fes(h) (Homo sapiens, UniProt P07332); type: biochemical
Method: as §1

IKKβ(h) = target: T2, IKKβ(h) (Homo sapiens, UniProt O14920); type: biochemical
T2 sequence (O14920 1-756): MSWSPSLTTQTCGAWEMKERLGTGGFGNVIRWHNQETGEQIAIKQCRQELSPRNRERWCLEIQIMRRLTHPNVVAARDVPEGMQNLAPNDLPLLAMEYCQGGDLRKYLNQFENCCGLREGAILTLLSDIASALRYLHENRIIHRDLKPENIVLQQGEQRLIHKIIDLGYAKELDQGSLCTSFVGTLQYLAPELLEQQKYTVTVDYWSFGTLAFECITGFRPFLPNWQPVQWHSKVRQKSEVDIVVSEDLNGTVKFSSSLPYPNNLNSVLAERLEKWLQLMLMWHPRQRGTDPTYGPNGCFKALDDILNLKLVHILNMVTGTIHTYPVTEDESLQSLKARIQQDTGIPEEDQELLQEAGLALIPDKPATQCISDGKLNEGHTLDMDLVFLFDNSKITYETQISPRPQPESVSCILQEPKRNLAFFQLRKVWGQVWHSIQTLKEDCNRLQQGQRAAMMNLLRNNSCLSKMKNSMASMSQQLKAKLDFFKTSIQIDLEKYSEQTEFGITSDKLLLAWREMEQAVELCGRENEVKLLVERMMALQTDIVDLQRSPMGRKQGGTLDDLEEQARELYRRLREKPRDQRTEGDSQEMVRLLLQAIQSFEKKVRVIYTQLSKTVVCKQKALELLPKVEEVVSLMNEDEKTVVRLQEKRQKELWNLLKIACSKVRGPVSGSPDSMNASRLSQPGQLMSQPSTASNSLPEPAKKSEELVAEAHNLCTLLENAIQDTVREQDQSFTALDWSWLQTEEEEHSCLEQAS
Method: as §1

MAPK2(m) = MAPK2(m) (Mus musculus, UniProt P63085); type: biochemical
Method: as §1

PRAK(h) = target: T3, PRAK(h) (Homo sapiens, UniProt Q8IW41); type: biochemical
T3 sequence (Q8IW41 1-473): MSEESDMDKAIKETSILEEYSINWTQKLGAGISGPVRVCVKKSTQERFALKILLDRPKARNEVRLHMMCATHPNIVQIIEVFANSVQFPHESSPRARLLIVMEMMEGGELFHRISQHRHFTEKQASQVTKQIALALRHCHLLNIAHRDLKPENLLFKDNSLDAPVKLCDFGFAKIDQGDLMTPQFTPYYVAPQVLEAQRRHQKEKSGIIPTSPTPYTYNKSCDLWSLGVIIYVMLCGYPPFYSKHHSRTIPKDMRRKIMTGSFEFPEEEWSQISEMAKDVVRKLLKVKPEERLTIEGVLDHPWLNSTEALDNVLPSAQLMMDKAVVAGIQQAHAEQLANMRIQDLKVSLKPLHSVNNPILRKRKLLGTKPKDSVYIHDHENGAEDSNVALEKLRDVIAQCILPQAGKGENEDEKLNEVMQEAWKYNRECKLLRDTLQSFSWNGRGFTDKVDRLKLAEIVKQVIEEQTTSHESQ
Method: as §1

ROCK-II(h) = ROCK-II(h) (Homo sapiens, UniProt O75116); type: biochemical
Method: as §1

Rsk1(r) = Rsk1(r) (Rattus norvegicus, UniProt Q63531); type: biochemical
Method: as §1

SAPK2a(h) = SAPK2a(h) (Homo sapiens, UniProt Q16539); type: biochemical
Method: as §1

c-RAF(h) = c-RAF(h) (Homo sapiens, UniProt P04049); type: biochemical
Method: as §1

Sequence of c-RAF(h) (P04049 whole entry): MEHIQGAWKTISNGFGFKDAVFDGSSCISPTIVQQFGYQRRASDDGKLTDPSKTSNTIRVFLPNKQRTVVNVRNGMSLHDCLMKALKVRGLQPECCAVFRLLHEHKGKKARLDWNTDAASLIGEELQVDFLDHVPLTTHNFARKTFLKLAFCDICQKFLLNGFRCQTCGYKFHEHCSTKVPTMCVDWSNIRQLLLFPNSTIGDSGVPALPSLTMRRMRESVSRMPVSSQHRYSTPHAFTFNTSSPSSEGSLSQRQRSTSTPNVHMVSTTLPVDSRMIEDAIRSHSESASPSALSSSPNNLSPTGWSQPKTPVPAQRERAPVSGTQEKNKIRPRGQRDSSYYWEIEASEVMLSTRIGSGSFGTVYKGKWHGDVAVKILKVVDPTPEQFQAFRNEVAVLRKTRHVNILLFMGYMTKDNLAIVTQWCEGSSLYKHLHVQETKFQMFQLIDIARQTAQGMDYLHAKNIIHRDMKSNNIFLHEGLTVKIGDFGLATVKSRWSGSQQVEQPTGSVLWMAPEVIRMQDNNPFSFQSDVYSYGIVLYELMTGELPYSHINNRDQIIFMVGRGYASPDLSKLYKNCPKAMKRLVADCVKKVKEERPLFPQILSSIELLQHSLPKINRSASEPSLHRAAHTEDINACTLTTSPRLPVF
Sequence of SAPK2a(h) (Q16539 whole entry): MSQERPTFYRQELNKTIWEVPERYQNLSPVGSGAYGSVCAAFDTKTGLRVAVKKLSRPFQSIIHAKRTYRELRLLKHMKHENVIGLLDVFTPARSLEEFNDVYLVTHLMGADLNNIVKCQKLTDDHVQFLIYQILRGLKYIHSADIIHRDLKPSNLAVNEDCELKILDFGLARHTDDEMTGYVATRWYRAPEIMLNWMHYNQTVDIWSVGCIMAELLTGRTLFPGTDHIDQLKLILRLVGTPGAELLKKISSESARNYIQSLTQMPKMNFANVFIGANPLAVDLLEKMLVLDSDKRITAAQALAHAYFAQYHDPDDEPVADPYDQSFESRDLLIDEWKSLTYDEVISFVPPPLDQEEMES
Sequence of CK2(h) (P68400 whole entry): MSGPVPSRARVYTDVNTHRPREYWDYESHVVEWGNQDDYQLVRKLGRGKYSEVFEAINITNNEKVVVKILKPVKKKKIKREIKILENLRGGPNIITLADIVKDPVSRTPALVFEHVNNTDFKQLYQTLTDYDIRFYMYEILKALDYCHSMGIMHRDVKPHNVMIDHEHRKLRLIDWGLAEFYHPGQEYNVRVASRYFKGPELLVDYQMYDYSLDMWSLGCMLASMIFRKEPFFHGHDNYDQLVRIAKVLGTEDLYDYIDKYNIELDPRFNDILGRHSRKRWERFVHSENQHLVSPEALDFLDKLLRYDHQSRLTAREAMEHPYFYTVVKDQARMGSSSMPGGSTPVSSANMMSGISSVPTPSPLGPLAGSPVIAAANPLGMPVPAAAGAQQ
Sequence of CK2(h) (P67870 whole entry partner): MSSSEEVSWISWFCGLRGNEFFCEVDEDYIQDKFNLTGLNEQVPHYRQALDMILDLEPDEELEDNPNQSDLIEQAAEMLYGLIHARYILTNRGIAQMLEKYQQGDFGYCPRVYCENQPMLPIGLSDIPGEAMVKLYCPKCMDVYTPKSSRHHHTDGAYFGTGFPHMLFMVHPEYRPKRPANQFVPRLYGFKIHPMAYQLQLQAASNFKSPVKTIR
Sequence of CDK5/p35(h) (Q00535 whole entry): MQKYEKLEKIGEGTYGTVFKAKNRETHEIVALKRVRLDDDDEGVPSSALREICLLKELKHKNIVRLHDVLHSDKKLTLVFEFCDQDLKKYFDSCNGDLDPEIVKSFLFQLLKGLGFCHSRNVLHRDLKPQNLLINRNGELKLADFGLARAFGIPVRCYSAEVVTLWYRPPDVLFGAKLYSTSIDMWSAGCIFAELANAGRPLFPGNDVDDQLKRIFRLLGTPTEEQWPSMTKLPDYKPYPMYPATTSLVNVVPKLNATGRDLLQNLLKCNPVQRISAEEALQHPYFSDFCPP
Sequence of CDK5/p35(h) (Q15078 whole entry partner): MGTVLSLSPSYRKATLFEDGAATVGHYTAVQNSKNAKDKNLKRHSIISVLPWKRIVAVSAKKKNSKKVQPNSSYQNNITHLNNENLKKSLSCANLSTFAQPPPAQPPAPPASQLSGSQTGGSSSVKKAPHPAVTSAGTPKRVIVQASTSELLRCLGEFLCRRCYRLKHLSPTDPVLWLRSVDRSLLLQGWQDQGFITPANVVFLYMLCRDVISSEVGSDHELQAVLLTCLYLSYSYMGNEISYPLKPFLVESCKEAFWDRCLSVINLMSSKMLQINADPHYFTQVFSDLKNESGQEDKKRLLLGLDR
Sequence of Rsk1(r) (Q63531 whole entry): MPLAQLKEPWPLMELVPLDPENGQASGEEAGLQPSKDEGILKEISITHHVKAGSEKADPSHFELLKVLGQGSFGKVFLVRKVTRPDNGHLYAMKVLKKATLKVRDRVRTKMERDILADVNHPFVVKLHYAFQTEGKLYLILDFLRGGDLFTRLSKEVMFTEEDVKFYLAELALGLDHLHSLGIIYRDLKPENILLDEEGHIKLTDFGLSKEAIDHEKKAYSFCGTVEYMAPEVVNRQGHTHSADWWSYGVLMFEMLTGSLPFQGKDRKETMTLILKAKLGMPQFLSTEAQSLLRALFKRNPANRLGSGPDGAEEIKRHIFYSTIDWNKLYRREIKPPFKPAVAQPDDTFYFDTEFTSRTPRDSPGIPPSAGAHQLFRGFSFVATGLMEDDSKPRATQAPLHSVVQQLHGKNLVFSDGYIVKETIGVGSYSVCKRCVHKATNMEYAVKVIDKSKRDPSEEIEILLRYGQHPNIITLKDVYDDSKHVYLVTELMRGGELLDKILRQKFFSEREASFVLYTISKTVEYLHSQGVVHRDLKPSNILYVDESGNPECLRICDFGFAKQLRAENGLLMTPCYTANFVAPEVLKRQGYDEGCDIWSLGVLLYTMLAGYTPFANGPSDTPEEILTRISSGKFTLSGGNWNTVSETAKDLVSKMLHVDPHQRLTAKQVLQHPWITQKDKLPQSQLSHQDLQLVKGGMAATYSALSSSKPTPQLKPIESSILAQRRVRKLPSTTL
Sequence of CK1δ(h) (P48730 whole entry): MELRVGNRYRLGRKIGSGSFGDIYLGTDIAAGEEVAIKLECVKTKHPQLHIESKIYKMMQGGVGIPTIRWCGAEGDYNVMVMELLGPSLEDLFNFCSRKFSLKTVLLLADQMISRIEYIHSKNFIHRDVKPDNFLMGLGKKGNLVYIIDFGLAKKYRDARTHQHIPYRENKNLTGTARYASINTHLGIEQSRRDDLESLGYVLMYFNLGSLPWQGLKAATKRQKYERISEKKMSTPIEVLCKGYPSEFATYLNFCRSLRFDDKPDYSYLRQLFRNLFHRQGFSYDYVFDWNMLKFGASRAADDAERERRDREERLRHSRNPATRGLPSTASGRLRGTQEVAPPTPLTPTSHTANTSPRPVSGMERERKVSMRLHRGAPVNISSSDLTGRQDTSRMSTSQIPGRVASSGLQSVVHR
Sequence of ROCK-II(h) (O75116 whole entry): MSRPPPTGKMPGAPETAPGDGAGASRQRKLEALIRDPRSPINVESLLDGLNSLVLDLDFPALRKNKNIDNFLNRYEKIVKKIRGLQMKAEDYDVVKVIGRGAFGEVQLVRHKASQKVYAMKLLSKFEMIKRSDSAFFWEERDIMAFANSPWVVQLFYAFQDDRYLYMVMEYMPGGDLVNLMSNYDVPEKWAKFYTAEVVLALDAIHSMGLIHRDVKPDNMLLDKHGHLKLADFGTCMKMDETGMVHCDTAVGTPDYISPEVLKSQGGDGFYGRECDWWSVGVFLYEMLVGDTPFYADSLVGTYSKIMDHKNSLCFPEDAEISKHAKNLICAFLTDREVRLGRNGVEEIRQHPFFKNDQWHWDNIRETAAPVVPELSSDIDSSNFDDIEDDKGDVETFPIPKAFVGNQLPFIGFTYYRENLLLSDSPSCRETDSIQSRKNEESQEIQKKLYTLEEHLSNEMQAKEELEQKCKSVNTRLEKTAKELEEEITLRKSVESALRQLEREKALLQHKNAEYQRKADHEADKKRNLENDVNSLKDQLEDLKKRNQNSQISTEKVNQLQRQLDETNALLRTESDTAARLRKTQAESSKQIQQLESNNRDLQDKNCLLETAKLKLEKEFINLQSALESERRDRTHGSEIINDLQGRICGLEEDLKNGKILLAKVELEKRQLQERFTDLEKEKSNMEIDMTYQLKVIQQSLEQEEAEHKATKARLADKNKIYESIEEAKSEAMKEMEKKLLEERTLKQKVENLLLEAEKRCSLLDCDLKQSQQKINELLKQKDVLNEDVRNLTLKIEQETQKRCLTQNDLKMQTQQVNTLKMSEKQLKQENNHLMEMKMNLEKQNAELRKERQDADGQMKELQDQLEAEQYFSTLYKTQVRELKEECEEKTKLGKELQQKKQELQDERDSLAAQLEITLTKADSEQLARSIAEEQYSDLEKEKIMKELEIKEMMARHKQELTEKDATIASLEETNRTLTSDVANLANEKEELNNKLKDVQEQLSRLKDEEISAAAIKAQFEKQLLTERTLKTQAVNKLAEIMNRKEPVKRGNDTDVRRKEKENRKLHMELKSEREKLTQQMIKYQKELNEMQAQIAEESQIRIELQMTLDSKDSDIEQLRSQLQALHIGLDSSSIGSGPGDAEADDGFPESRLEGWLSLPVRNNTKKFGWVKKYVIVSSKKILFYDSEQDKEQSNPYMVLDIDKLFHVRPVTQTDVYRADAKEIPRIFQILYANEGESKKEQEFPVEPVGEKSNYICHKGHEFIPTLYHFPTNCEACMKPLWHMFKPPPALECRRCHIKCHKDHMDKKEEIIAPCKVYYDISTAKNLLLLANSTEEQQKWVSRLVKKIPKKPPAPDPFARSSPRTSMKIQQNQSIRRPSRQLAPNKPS

| Activity at Protein Kinase Assays (% of control), AMPK(r) (AMPK(r)) | Activity at Protein Kinase Assays (% of control), CaMKII(r) (CaMKII(r)) | Activity at Protein Kinase Assays (% of control), CK1(y) (CK1(y)) | Activity at Protein Kinase Assays (% of control), p70S6K(h) (p70S6K(h)) | Activity at Protein Kinase Assays (% of control), Arg(m) (Arg(m)) | Activity at Protein Kinase Assays (% of control), CDK2/cyclinA(h) (CDK2/cyclinA(h)) | Activity at Protein Kinase Assays (% of control), CDK5/p35(h) (CDK5/p35(h)) | Activity at Protein Kinase Assays (% of control), CHK1(h) (CHK1(h)) | Activity at Protein Kinase Assays (% of control), CK1δ(h) (CK1δ(h)) | Activity at Protein Kinase Assays (% of control), CK2(h) (CK2(h)) | Activity at Protein Kinase Assays (% of control), CSK(h) (CSK(h)) | Activity at Protein Kinase Assays (% of control), Fes(h) (Fes(h)) | Activity at Protein Kinase Assays (% of control), IKKβ(h) (IKKβ(h)) | Activity at Protein Kinase Assays (% of control), MAPK2(m) (MAPK2(m)) | Activity at Protein Kinase Assays (% of control), PRAK(h) (PRAK(h)) | Activity at Protein Kinase Assays (% of control), ROCK-II(h) (ROCK-II(h)) | Activity at Protein Kinase Assays (% of control), Rsk1(r) (Rsk1(r)) | Activity at Protein Kinase Assays (% of control), SAPK2a(h) (SAPK2a(h)) | Activity at Protein Kinase Assays (% of control), c-RAF(h) (c-RAF(h)) | SMILES |
| --- | --- | --- | --- | --- | --- | --- | --- | --- | --- | --- | --- | --- | --- | --- | --- | --- | --- | --- | --- |
| 101 % of control | 92 % of control | 91 % of control | 98 % of control | 113 % of control | 120 % of control | 99 % of control | 105 % of control | 107 % of control | 107 % of control | 95 % of control | 107 % of control | 128 % of control | 95 % of control | 88 % of control | 110 % of control | 37 % of control | 108 % of control | 103 % of control | CN(C)c1nc2ccc1CCCCn1cc(c3ccccc31)C1=C(C(=O)NC1=O)c1cn(c3ccccc13)CCC2 [Cpd 1, 31-(dimethylamino)-5,15,25,32-tetraazaheptacyclo[28.2.2.1^5,12.1^18,25.0^6,11.0^13,17.0^19,24]hexatriaconta-1(32),6,8,10,12(36),13(17),18(35),19,21,23,30,33-dodecaene-14,16-dione] |
| 101 % of control | 107 % of control | 98 % of control | 91 % of control | 129 % of control | 80 % of control | 105 % of control | 101 % of control | 111 % of control | 111 % of control | 133 % of control | 133 % of control | 124 % of control | 95 % of control | 96 % of control | 103 % of control | 7 % of control | 92 % of control | 87 % of control | CN(C)c1cc2cc(n1)CCCn1cc(c3ccccc31)C1=C(C(=O)NC1=O)c1cn(c3ccccc13)CCC2 [Cpd 2, 20-(dimethylamino)-4,14,19,26-tetraazaheptacyclo[24.6.1.1^7,14.1^18,22.0^2,6.0^8,13.0^27,32]pentatriaconta-1(33),2(6),7(35),8,10,12,18(34),19,21,27,29,31-dodecaene-3,5-dione] |
| 105 % of control | 109 % of control | 99 % of control | 95 % of control | 121 % of control | 88 % of control | 99 % of control | 110 % of control | 112 % of control | 108 % of control | 125 % of control | 139 % of control | 125 % of control | 103 % of control | 101 % of control | 107 % of control | 5 % of control | 92 % of control | 92 % of control | O=C1NC(=O)C2=C1c1cn(c3ccccc13)CCCc1cc(nc(N3CCCC3)c1)CCCn1cc2c2ccccc21 [Cpd 6, 20-pyrrolidin-1-yl-4,14,19,26-tetraazaheptacyclo[24.6.1.1^7,14.1^18,22.0^2,6.0^8,13.0^27,32]pentatriaconta-1(33),2(6),7(35),8,10,12,18(34),19,21,27,29,31-dodecaene-3,5-dione] |
